The text below walks through data of US12595280B2, “Phosphoramidates for the treatment of hepatitis B virus” (priority 2014, dated 2026).

The structures appear in SMILES notation. Like-named read-outs stand apart in the source and are kept apart here.

The test system of one data set is HBV. Briefly: HBV efficacy assay: viral DNA in HepG2.2.15 supernatant by qPCR. Type of data set: cell-based. To be noted: Hepatitis B virus. Here is the method: HepG2.2.15 cells (100 μL) in RPMI1640 medium with 10% fetal bovine serum was added to all wells of a 96-well plate at a density of 1×10^4 cells per well and the plate was incubated at 37° C. in an environment of 5% CO2 for 24 hours. Following incubation, six ten-fold serial dilutions of test compound prepared in RPMI1640 medium with 10% fetal bovine serum were added to individual wells of the plate in triplicate. Six wells in the plate received medium alone as a virus only control. The plate was incubated for 6 days at 37° C. in an environment of 5% CO2. The culture medium was changed on day 3 with medium containing the indicated concentration of each compound. One hundred microliters of supernatant was collected from each well for analysis of viral DNA by qPCR and cytotoxicity was evaluated by XTT staining of the cell culture monolayer on the sixth day.
Ten microliters of cell culture supernatant collected on the sixth day was diluted in qPCR dilution buffer (40 μg/mL sheared salmon sperm DNA) and boiled for 15 minutes. Quantitative real time PCR was performed in […] using an Applied Biosystems 7900HT Sequence Detection System and the supporting SDS 2.4 software. Five microliters (5 μL) of boiled DNA for each sample and serial 10-fold dilutions of a quantitative DNA standard were subjected to real time Q-PCR using Platinum Quantitative PCR SuperMix-UDG (Invitrogen) and specific DNA oligonucleotide primers (IDT, Coralville, […]) HBV-AD38-qF1 (5′-CCGTCTGTGCCTTCTCATCTG-3′) (SEQ ID NO: 1), HBV-AD38-qR1 (5′-AGT CCA AGA GTY CTC TTA TRY AAG ACC TT-3′) (SEQ ID NO: 2), and HBV-AD38-qP1 (5′-FAM CCG TGT GCA/ZEN/CTT CGC TTC ACC TCT GC-3′BHQ1) (SEQ ID NO: 3, underlined portion only) at a final concentration of 0.2 μM for each primer in a total reaction volume of 15 μL. The HBV DNA copy number in each sample was interpolated from the standard curve by the SDS.24 software and the data were imported into an Excel spreadsheet for analysis.

The conditions of data set [1]: human, in vivo; cited from earlier work.
The test system of data set [2] is HBV encoded polymerase (Hepatitis B virus genotype D subtype ayw). To be noted: cited from earlier work.
The mark [3] stands for this setting: HepG2.2.15, 144 h, read-out: HBV Efficacy Assay EC50 (μM).
Setting [4] is: 144 h, HepG2.2.15 cells, 6 days, viral DNA in supernatant by qPCR, read-out: HBV Efficacy Assay EC50.

Chain of HBV encoded polymerase (Hepatitis B virus genotype D subtype ayw) (P03156 whole entry): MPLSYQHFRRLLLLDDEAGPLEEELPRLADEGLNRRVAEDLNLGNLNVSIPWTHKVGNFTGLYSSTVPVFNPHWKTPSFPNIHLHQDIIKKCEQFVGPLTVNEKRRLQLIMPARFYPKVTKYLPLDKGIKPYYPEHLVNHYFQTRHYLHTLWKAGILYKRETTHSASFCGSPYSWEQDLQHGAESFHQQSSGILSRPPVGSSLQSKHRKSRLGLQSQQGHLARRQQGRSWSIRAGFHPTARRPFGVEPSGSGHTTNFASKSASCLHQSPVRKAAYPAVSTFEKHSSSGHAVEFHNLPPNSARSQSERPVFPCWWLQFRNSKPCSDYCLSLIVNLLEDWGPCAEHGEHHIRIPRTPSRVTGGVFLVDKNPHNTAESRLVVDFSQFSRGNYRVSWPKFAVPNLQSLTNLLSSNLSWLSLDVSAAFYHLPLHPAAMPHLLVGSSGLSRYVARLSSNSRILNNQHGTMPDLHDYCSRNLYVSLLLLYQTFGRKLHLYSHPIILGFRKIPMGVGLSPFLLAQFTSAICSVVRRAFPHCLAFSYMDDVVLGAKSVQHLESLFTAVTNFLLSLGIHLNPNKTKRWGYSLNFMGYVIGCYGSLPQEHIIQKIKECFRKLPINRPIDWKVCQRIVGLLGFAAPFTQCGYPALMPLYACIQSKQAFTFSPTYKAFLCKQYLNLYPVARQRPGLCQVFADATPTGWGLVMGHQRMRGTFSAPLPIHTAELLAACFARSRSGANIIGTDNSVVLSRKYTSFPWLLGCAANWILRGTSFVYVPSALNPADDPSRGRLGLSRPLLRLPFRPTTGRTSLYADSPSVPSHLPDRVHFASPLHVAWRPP

As for `Cc1cn([C@H]2O[C@@H](CO)[C@H](O)[C@H]2F)c(=O)[nH]c1=O`, in the data set with HBV (setting [3]), the EC50 turned out to be 0.46 µM. On to `Cc1cn([C@H]2O[C@@H](CO[P@@](=O)(N[C@@H](C)C(=O)OC(C)C)Oc3ccccc3)[C@H](O)[C@H]2F)c(=O)[nH]c1=O`, for which the EC50 in the data set with HBV (setting [3]) was 1.71 µM. The same measure, in the same setting: under `Cc1cn([C@H]2O[C@@H](CO[P@](=O)(N[C@@H](C)C(=O)OC(C)C)Oc3ccccc3)[C@H](O)[C@H]2F)c(=O)[nH]c1=O` stands 4.29 µM; under `Cc1cn([C@H]2O[C@@H](CO[P@@](=O)(N[C@@H](C)C(=O)OC(C)C)Oc3ccccc3)[C@H](O[P@@](=O)(N[C@@H](C)C(=O)OC(C)C)Oc3ccccc3)[C@H]2F)c(=O)[nH]c1=O`, 2.9 µM. Take `Cc1cn([C@H]2O[C@@H](CO[P@](=O)(N[C@@H](C)C(=O)OC(C)C)Oc3ccccc3)[C@H](O[P@](=O)(N[C@@H](C)C(=O)OC(C)C)Oc3ccccc3)[C@H]2F)c(=O)[nH]c1=O`: the EC50 in the data set on HBV (setting [3]) amounted to 2.39 µM. In the case of `Cc1cn([C@H]2O[C@@H](CO)C(O)C2F)c(=S)[nH]c1=O` (some centres unmarked), in the data set on HBV (setting [4]), the EC50 was over 100 µM.

As to `Cc1cn([C@H]2O[C@@H](CO[P@](=O)(N[C@@H](C)C(=O)OC(C)C)Oc3ccccc3)C(O)C2F)c(=S)[nH]c1=O` (some centres unmarked), in the data set on HBV (setting [3]), the EC50 is over 100 µM.

`Cc1cn([C@H]2O[C@@H](CO[P@@](=O)(N[C@@H](C)C(=O)OC(C)C)Oc3ccccc3)C(O)C2F)c(=S)[nH]c1=O` (some centres unmarked): in the data set with HBV (setting [3]), the EC50 was over 100 µM. For the compound `Nc1ccn([C@@H]2CS[C@H](CO)O2)c(=O)n1`, the EC50 in the data set with HBV (setting [4]) turned out to be 0.14 µM. With `Cc1cn([C@H]2O[C@@H](CO)[C@H](O)[C@H]2F)c(=O)[nH]c1=O` [Clevudine], in data set [1], the “adverse effect in patients” value was “drug-related skeletal myopathy”. On to `Cc1cn([C@H]2O[C@@H](COP(=O)(O)OP(=O)(O)OP(=O)(O)O)C(O)C2F)c(=O)[nH]c1=O` (some centres unmarked) [clevudine triphosphate, Clevudine-5′-Triphosphate], for which, in data set [2], the “mode of inhibition of the HBV encoded polymerase” value is on record as “competitive non-substrate inhibitor”.

As usually defined, the EC50 is the concentration that produces a half-maximal response.
